As usually defined, the IC50 is the concentration that inhibits the measured activity by half.

In data set [1] the target is T1, recombinant human MMP-2 protein (Active) (Homo sapiens, UniProt P08253).
T1 construct: with the active form of MMP-2 enzyme; purchased Abcam ab81550
T1 sequence (P08253 110-660): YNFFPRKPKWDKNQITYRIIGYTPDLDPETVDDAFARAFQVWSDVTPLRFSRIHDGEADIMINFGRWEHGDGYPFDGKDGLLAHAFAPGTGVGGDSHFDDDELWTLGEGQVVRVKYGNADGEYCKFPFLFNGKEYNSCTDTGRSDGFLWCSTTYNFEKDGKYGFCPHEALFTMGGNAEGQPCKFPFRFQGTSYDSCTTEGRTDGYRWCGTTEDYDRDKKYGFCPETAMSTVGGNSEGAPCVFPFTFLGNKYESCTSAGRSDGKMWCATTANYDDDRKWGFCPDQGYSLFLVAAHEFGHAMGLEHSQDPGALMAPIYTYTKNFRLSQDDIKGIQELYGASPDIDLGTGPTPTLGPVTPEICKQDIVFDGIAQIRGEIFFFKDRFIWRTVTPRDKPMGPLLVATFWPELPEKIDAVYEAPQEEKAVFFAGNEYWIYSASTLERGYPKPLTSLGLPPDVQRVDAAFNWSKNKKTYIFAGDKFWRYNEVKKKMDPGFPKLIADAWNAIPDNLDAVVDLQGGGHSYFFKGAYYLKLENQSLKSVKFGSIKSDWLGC
Put plainly: Enzymatic-cleavage assay with MMP-2 enzyme. It is filed as in vitro ADME. The conditions noted are these: recombinant human MMP-2, enzyme:linker 1:20 (w/w), Tris·HCl buffer pH 7.4, 37 °C, 74 h, HPLC-UV 254 nm, by retention time vs free MMAE. The procedure: The cleavage test with the MMP-2 enzyme was performed using recombinant human MMP-2 protein (Active) purchased from Abcam (ab81550). A buffer solution Tris∙HCl (50 mM), NaCl (0.2 M), CaCl2 (10 mM), Brij-35 (0.05%), ZnSO4 (50 µM), pH 7.4 was prepared in accordance with the literature ([Tauro et al., 2008]). A solution of EDTA (50 mM) was prepared for stopping the MMP-2 activity. For the assay, the MMP-2 enzyme (10 µg) was diluted with 100 µL Milli-Q Water, accordingly to the data sheet. A solution of the H2N-GPLG-PABC-MMAE 7 was prepared (0.105 mg in 0.881 mL of buffer solution). To start the assay, 25 µL MMP-2 enzyme was added to 475 µL of the linker solution to have 1:20 (w/w) enzyme: linker ratio. […] The resulting solution was diluted with 180 µL Milli-Q Water and 70 µL of acetonitrile (MeCN) and analyzed by analytical HPLC SHIMADZU LC-20AP equipped with diode array UV detector and LiChrosorb RP-18 (5 μm) C18 column. […]
Samples were analyzed using analytical HPLC SHIMADZU LC -20AP equipped with diode array UV detector and LiChrosorb® RP-18 (5 μm) C18 column, flow rate: 1 mL/min., gradient: from 90% (H2O + 0.1% TFA) / 10% (MeCN) to 40% (H2O + 0.1% TFA) / 60% (MeCN) in 16 min. to 10% (H2O + 0.1% TFA) / 90% (MeCN) in 9 min. to 10% (H2O + 0.1% TFA) / 90% (MeCN) in 5 min. to 90% (H2O + 0.1% TFA) / 10% (MeCN) in 5 min. to 90% (H2O + 0.1% TFA) / 10% (MeCN) in 5 min. […]

Data set [2] deals with SK-MEL-28 human melanoma cells. Put plainly: In vitro antiproliferative activity, MTT, 72 h continuous treatment (no-washout). It counts as cell-based. The conditions noted are these: MTT, 72 h continuous treatment, no washout, 5% serum final; triplicate, repeated three times. The procedure:
(§1) U87MG human malignant glioma, SK-MEL-28 human melanoma, SK-OV-3 human ovarian cancer, and A549 human lung cancer cell lines were purchased from ATCC. The cells were cultured in Dulbecco’s Modified Eagle’s Medium (DMEM; Biosera, Nuaille, France), supplemented with 10% heat-inactivated Fetal Bovine Serum (FBS; Biosera), and with 1% Penicillin/Streptomycin (Biosera). Cells were cultured in sterile T75 flasks with ventilation cap (Sarstedt, Nümbrecht, Germany) at 37 °C in a humidified atmosphere with 5% CO2 in ESCO CelCulture Incubator (ESCO, Friedberg, Germany). Manipulations with the cells were performed in biosafety cabinet (laminar) ESCO Sentinel Gold class II model AC2-4E8 (ESCO).
(§2) After standard trypsinization and harvesting cells by trypsin (Biosera), ethylenediaminetetraacetic acid (EDTA; Biosera) and PBS solution, 6×10^3 cells per well were seeded in serum containing (10%) growth medium to 96-well plates with flat bottom (Eppendorf, Hamburg, Germany), in a 100 μL volume per well, and incubated at 37°C.
(§3) […] The control wells were treated only with serum free medium (5% serum final).
(§4) For the evaluation of the in vitro antiproliferative activity of compounds, the cell viability was determined by MTT assay (3-(4,5-dimethylthiazol-2-yl)-2,5-diphenyl-tetrazolium bromide) obtained from Duchefa Biochemie (Haarlem, Netherlands).
(§5) 22 µL of MTT solution (5 mg/mL in PBS, 0.5 mg/mL final) was added to each well and after 2 h incubation at 37°C, the supernatant was removed. […] Average background absorbance (DMSO-Ethanol) was subtracted from absorbance values of control and treated wells, and cell viability was determined relative to untreated (control) wells where cell viability was arbitrarily set to 100%. […] The experiments were done in triplicate and each experiment was repeated three times.

Data set [3] concerns U87MG human malignant glioma cells. Described as above. It is filed as cell-based. To be noted: MTT, 72 h continuous treatment, no washout, 5% serum final; triplicate, repeated three times. The procedure:
as §1, §2, §3, §4, §5

Data set [4] has as its system A549 human lung cancer cells. The description is as above. To be noted: MTT, 72 h continuous treatment, no washout, 5% serum final; αVβ3 low expressing line; triplicate, repeated three times. It is filed as cell-based. The procedure: as §1, §2
(§6) In the wash out experiment, cells were incubated with the compounds (5% serum final) for 30 min, then they were washed out, and additionally incubated in growth medium (5% serum final) up to 72 h. The control wells were treated only with serum free medium (5% serum final).
as §4, §5

In data set [5] the test system is SK-OV-3 human ovarian cancer cells. Described as above. It is filed as cell-based. To be noted: MTT, 72 h continuous treatment, no washout, 5% serum final; triplicate, repeated three times. The procedure:
as §1, §2, §6, §4, §5

For data set [6], the system named is A549 human lung cancer cells. The data set can be described thus: In vitro antiproliferative activity, "kiss-and-run" washout experiment (30 min + washout + up to 72 h). It is filed as cell-based. The conditions noted are these: MTT, 30 min treatment, washout, further incubation up to 72 h, 5% serum final; αVβ3 low expressing line. The procedure: as §1, §2, §6, §4, §5
(§7) Recently, a new protocol for evaluating the antiproliferative activity and the targeting ability of integrin-ligand based conjugates was developed by the group of Prof. […] In this procedure, which we named “kiss-and-run” experiment, after very short initial contact times (15–30 min) of the toxin with the cells in vitro, the solution is drained, and cells are resuspended in the culture medium for a 72 h incubation. This protocol is aimed at simulating the rapid clearance of the drugs that occurs in vivo in the extracellular tumor environment, thus highlighting the ability of the conjugate to bind the integrin receptor on the cell surface.

For data set [7], the system named is SK-MEL-28 human melanoma cells. The data set is described as above. It counts as cell-based. To be noted: MTT, 30 min treatment, washout, further incubation up to 72 h, 5% serum final. The procedure: as §1, §2, §6, §4, §5, §7
Data set [8] concerns SK-OV-3 human ovarian cancer cells. The description is as above. It is filed as cell-based. The conditions noted are these: MTT, 30 min treatment, washout, further incubation up to 72 h, 5% serum final. The procedure:
as §1, §2, §6, §4, §5, §7

Data set [9] deals with U87MG human malignant glioma cells. Described as above. It is filed as cell-based. To be noted: MTT, 30 min treatment, washout, further incubation up to 72 h, 5% serum final. The procedure: as §1, §2, §6, §4, §5, §7
In data set [10] the test system is SK-MEL-28 cells. Put plainly: In vitro antiproliferative activity in the presence of MMP-2 inhibitor. It is filed as cell-based, human. To be noted: 16 h pre-incubation with MMP-2 inhibitor 10 µM, then 72 h continuous treatment, 5% serum final; average ± SD, triplicate; read-out: IC50 MMP-2 inhibitor + Treatment 72 h SK-MEL-28 (αVβ3 +). The procedure: as §4
(§8) 22 µL of MTT solution (5 mg/mL in PBS, 0.5 mg/mL final) was added to each well and after 2 h incubation at 37°C, the supernatant was removed. The precipitated purple formazan crystals were dissolved in 100 µL of a 1:1 solution of dimethylsulfoxide (DMSO; Merck, St. Louis, MO, United States): 96% Ethanol (Molar Chemicals Kft., Halásztelek, Hungary) and the absorbance was measured after 15 min at λ = 570 nm by using microplate reader CLARIOstar Plus (BMG Labtech, Ortenberg, Germany). Average background absorbance (DMSO-Ethanol) was subtracted from absorbance values of control and treated wells, and cell viability was determined relative to untreated (control) wells where cell viability was arbitrarily set to 100%. Absorbance values of treated samples were normalized versus untreated control samples and interpolated by nonlinear regression analysis with GraphPad Prism 6 software (GraphPad, La Jolla, San Diego, CA, United States) to generate sigmoidal dose-response curves from which the 50% inhibitory concentration (IC50) values of the compounds were calculated and presented as nanomolar (nM) units. The experiments were done in triplicate and each experiment was repeated three times.
(§9) The conjugate 2 and the free MMAE were tested in presence of the MMP-2 inhibitor cis-9-octadecenoyl-N-hydroxylamine (Merck) dissolved in DMSO ([You et al., 2018]). The three αVβ3 integrin and MMP-2 overexpressing cancer cell lines (U87MG, SK-MEL-28, […]) were seeded with serum containing medium ([Ellijimi et al., 2018]; [Shim et al., 2019]) and, after 8 h, were washed-out. Then, 100 µL per well of MMP-2 inhibitor (10 µM final concentration) were added and cells were incubated for 16 h, prior to the treatment. Later, the conjugate 2 and free MMAE were dissolved in 10% serum containing medium and added to reach the same concentrations evaluated in the previous test in a final volume of 100 µL per well and incubated (5% serum final) continuously for 72 h of the treatment. The experiments were performed in triplicate.

Data set [11] concerns SK-OV-3 cells. The data set is described as above. It is filed as cell-based, human. The conditions noted are these: 16 h pre-incubation with MMP-2 inhibitor 10 µM, then 72 h continuous treatment, 5% serum final; average ± SD, triplicate; read-out: IC50 MMP-2 inhibitor + Treatment 72 h SK-OV-3 (αVβ3 +). The procedure: as §4, §8, §9
The test system of data set [12] is U87MG cells. The description is as above. The conditions noted are these: 16 h pre-incubation with MMP-2 inhibitor 10 µM, then 72 h continuous treatment, 5% serum final; average ± SD, triplicate; read-out: IC50 MMP-2 inhibitor + Treatment 72 h U87MG (αVβ3 +). It is filed as cell-based, human. The procedure:
as §4, §8, §9

“And” between values parts separate entries of the source, which are not always exact repeats. Equal entries are not always repeated. *1 amine or outer side, *2 acyl side, *3 side chain or, on linkers, in order; H or OH if unused. Where a SMILES comes first, the peptide text is derived from it. [ ]: non-standard residue; d: D form. The star is where a group is joined. Dolaproine = CO[C@@H]([C@@H]1CCCN1)[C@@H](C)C(=O)O; Dil = CC[C@H](C)[C@H](NC)[C@@H](CC(=O)O)OC; PABC = O=C(OCc1ccc(N[*:1])cc1)[*:2]; X1 = C[C@@H](N*)[C@@H](O)c1ccccc1; NMeV = CN[C@H](C(=O)O)C(C)C A value given as a limit tells only on which side of the number the result lay.

For `CC[C@H](C)[C@@H]([C@@H](CC(=O)N1CCC[C@H]1[C@H](OC)[C@@H](C)C(=O)N[C@H](C)[C@@H](O)c1ccccc1)OC)N(C)C(=O)[C@@H](NC(=O)[C@H](C(C)C)N(C)C(=O)OCc1ccc(NC(=O)CNC(=O)[C@H](CC(C)C)NC(=O)[C@@H]2CCCN2C(=O)CN)cc1)C(C)C` [compound 7, H2N-GPLG-PABC-MMAE] (H-GPLG[PABC][NMeV]V[Dil][Dolaproine]-X1), the “release of free MMAE on incubation with active MMP-2” value in [1] is recorded as “not observed”.

As for `CC[C@H](C)[C@@H]([C@@H](CC(=O)N1CCC[C@H]1[C@H](OC)[C@@H](C)C(=O)N[C@H](C)[C@@H](O)c1ccccc1)OC)N(C)C(=O)[C@@H](NC(=O)[C@@H](NC)C(C)C)C(C)C` [MMAE, monomethyl auristatin E] (H-[NMeV]V[Dil][Dolaproine]-X1), the IC50 in data set [2] is 2.39 ± 0.395 nM; in [3], 0.225 ± 0.0126 nM; in [4], 0.0688 ± 0.0021 nM; in data set [5] it was 0.03 nM and 0.0307 nM; in [6] it was 266 ± 16.1 nM; in data set [7], 1400 ± 137 nM. In addition, the IC50 was found to be 206 ± 23.6 nM in data set [8]; 2130 ± 216 nM in [9]; 1.9 ± 0.778 nM in [10]; 0.0334 ± 0.0119 nM in [11]; 0.374 ± 0.132 nM in [12]. Also, the “IC50 72h SK-MEL-28” value in data set [2] is “very low nanomolar range”.

Consider `N=C(N)NCCC[C@@H]1NC(=O)CNC(=O)C[C@@H](C(=O)O)NC(=O)C[C@H]2NC(=O)[C@H](CNC1=O)N(Cc1ccccc1)C2=O` [compound 10, cyclo[DKP-isoDGR], reference compound], for which the IC50 in [6], in [7], in [8] and in [9] was over 20000 nM throughout.

Consider `CCCCCCCC/C=C\CCCCCCCC(=O)NO` [MMP-2 Inhibitor, cis-9-octadecenoyl-N-hydroxylamide], for which the IC50 in data set [10], in [11] and in [12] was over 20000 nM each time.
